According to the CheMixHub ionic liquid set:
± gives the uncertainty stated by the source.

Test: xn = mol fraction of the nth substance listed
Conditions: 100 kPa; for electrical conductivity: x1 = 0.1386, x2 = 0.7575

CC[n+]1ccn(CCOC)c1.N#C[S-] + CCCCO
viscosity [mPa·s]
Conditions | x1 = 0.1 | x1 = 0.1999 | x1 = 0.2996 | x1 = 0.4001 | x1 = 0.4996 | x1 = 0.5995 | x1 = 0.6979 | x1 = 0.7993 | x1 = 0.9 | x1 = 1
288.15 K | 4.85 ± 0.27 | 6.76 ± 0.38 | 9.62 ± 0.53 | 13.89 ± 0.77 | 20 ± 1.1 | 27.4 ± 1.5 | 40.1 ± 2.2 | 53 ± 2.9 | 72 ± 4 | 93.1 ± 5.3
293.15 K | 4.22 ± 0.23 | 5.84 ± 0.32 | 8.21 ± 0.46 | 11.73 ± 0.65 | 16.88 ± 0.93 | 22.5 ± 1.3 | 32.3 ± 1.8 | 42.1 ± 2.3 | 56.5 ± 3.1 | 70.8 ± 3.9
298.15 K | 3.73 ± 0.21 | 5.1 ± 0.28 | 7.11 ± 0.39 | 10.04 ± 0.56 | 14.26 ± 0.79 | 19 ± 1 | 26.4 ± 1.5 | 34.1 ± 1.9 | 44.9 ± 2.5 | 55.8 ± 3
303.15 K | 3.3 ± 0.18 | 4.49 ± 0.25 | 6.22 ± 0.34 | 8.68 ± 0.48 | 12.18 ± 0.67 | 16.18 ± 0.89 | 22 ± 1.2 | 28 ± 1.5 | 36.4 ± 2 | 44.3 ± 2.4
308.15 K | 2.93 ± 0.16 | 4.01 ± 0.22 | 5.48 ± 0.3 | 7.57 ± 0.42 | 10.46 ± 0.58 | 13.82 ± 0.76 | 18.7 ± 1 | 23.4 ± 1.3 | 30 ± 1.6 | 36 ± 2
313.15 K | 2.62 ± 0.15 | 3.57 ± 0.2 | 4.86 ± 0.27 | 6.66 ± 0.37 | 9.07 ± 0.5 | 11.91 ± 0.66 | 16.06 ± 0.88 | 19.9 ± 1.1 | 25.1 ± 1.4 | 29.7 ± 1.6
318.15 K | 2.35 ± 0.13 | 3.21 ± 0.18 | 4.34 ± 0.24 | 5.9 ± 0.33 | 7.94 ± 0.44 | 10.35 ± 0.57 | 13.87 ± 0.76 | 17.27 ± 0.95 | 21.3 ± 1.2 | 24.9 ± 1.4

CCOCCO + CCCC[n+]1ccn(C)c1.[Br-]
x2 = 0
Conditions | viscosity [mPa·s]
298.15 K | 1.81 ± 0.18
303.15 K | 1.61 ± 0.16
308.15 K | 1.45 ± 0.15
313.15 K | 1.33 ± 0.13

CCCCn1cc[n+](CCOCCOCCOCC[n+]2ccn(CCCC)c2)c1.O=S(=O)([N-]S(=O)(=O)C(F)(F)F)C(F)(F)F.O=S(=O)([N-]S(=O)(=O)C(F)(F)F)C(F)(F)F + CC[n+]1ccn(C)c1.N#C[N-]C#N + O=S(=O)([N-]S(=O)(=O)C(F)(F)F)C(F)(F)F.[Li+]
Conditions | electrical conductivity [S/m]
298 K | 0.61 ± 0.024
303 K | 0.773 ± 0.031
313 K | 0.902 ± 0.036
323 K | 1.18 ± 0.047
333 K | 1.51 ± 0.06
344 K | 1.89 ± 0.076

CCCCCC[n+]1ccn(C)c1.O=[N+]([O-])[O-] + CC(C)O
viscosity [mPa·s]
Conditions | 293.15 K | 298.15 K | 303.15 K | 308.15 K | 313.15 K | 318.15 K | 323.15 K
x1 = 0.0817 | 6.79 ± 0.38 | 5 ± 0.28 | 3.85 ± 0.21 | 2.97 ± 0.16 | 2.39 ± 0.13 | 2.01 ± 0.11 | 1.65 ± 0.09
x1 = 0.1594 | 16 ± 0.87 | 11.18 ± 0.61 | 7.97 ± 0.43 | 5.99 ± 0.33 | 4.67 ± 0.25 | 3.68 ± 0.2 | 2.88 ± 0.15
x1 = 0.2402 | 32 ± 1.7 | 23 ± 1.2 | 17 ± 0.9 | 12.69 ± 0.68 | 9.5 ± 0.51 | 7.25 ± 0.39 | 5.63 ± 0.3
x1 = 0.3493 | 66 ± 3.4 | 47.7 ± 2.5 | 34 ± 1.8 | 26.9 ± 1.4 | 21 ± 1.1 | 16.7 ± 0.86 | 12.75 ± 0.66
x1 = 0.4408 | 111 ± 5.8 | 79.5 ± 4.1 | 55.4 ± 2.8 | 43.2 ± 2.2 | 34.4 ± 1.8 | 27.2 ± 1.4 | 21.3 ± 1.1
x1 = 0.5609 | 187 ± 10 | 136.6 ± 7.2 | 91 ± 4.7 | 70 ± 3.6 | 55.8 ± 2.8 | 43.5 ± 2.2 | 34 ± 1.7
x1 = 0.6502 | 266 ± 15 | 193 ± 10 | 122.4 ± 6.4 | 94.1 ± 4.9 | 74.7 ± 3.8 | 58.3 ± 3 | 44.5 ± 2.3
x1 = 0.7417 | 363 ± 21 | 265 ± 15 | 164.3 ± 8.8 | 123.7 ± 6.5 | 96 ± 5 | 75.4 ± 3.9 | 58 ± 3
x1 = 0.8518 | 505 ± 30 | 372 ± 21 | 232 ± 13 | 168.8 ± 9 | 128.2 ± 6.7 | 101.2 ± 5.2 | 78.6 ± 4
x1 = 0.9396 | 664 ± 40 | 467 ± 27 | 306 ± 17 | 218 ± 12 | 160.5 ± 8.5 | 124 ± 6.5 | 96.7 ± 5
x1 = 1 | 804 ± 49 | 545 ± 32 | 369 ± 21 | 258 ± 14 | 186 ± 10 | 140.2 ± 7.4 | 110.9 ± 5.8

CCOS(=O)(=O)[O-].CC[n+]1ccn(C)c1 + OCCN(CCO)CCO
Conditions | viscosity [mPa·s]
303.15 K, x2 = 0 | 75.7 ± 1.6
